Laboratory results from patent US9650340B2, “5-fluoro-N-(pyridin-2-yl)pyridin-2-amine derivatives containing a sulfoximine group” (BAYER PHARMA AKTIENGESELLSCHAFT, priority 2012, dated 2017).
Structures can show the parent of a compound that is named as a salt. Where two headings read alike, the source gives them in different places.

Assays:
CDK2/CycE = molecular target: T1, CDK2/CycE (Homo sapiens, UniProt P24941); assay: CDK2/CycE high ATP kinase assay (TR-FRET, 2 mM ATP); format: biochemical; conditions: Method 2b
T1 construct: GST; purchased ProQinase GmbH (Freiburg, Germany); host or cells: insect cells (Sf9)
Description: 2b. CDK2/CycE High ATP Kinase Assay:
CDK2/CycE-inhibitory activity of compounds of the present invention at 2 mM adenosine-tri-phosphate (ATP) was quantified employing the CDK2/CycE TR-FRET (TR-FRET=Time Resolved Fluorescence Energy Transfer) assay as described in the following paragraphs.
Recombinant fusion proteins of GST and human CDK2 and of GST and human CycE, expressed in insect cells (Sf9) and purified by Glutathion-Sepharose affinity chromatography, were purchase from ProQinase GmbH (Freiburg, Germany). As substrate for the kinase reaction biotinylated peptide biotin-Ttds-[…] (C-terminus in amid form) was used which can be purchased e.g. form the company JERINI peptide technologies (Berlin, Germany).
For the assay 50 nl of a 100 fold concentrated solution of the test compound in DMSO was pipetted into a black low volume 384 well microtiter plate (Greiner Bio-One, Frickenhausen, Germany), 2 μl of a solution of CDK2/CycE in aqueous assay buffer [50 mM Tris/HCl pH 8.0, 10 mM MgCl2, 1.0 mM dithiothreitol, 0.1 mM sodium ortho-vanadate, 0.01% (v/v) Nonidet-P40 (Sigma)] were added and the mixture was incubated for 15 min at 22° C. to allow pre-binding of the test compounds to the enzyme before the start of the kinase reaction. Then the kinase reaction was started by the addition of 3 μl of a solution ATP (3.33 mM=>final conc. in the 5 μl assay volume is 2 mM) and substrate (1.25 μM=>final conc. in the 5 μl assay volume is 0.75 μM) in assay buffer and the resulting mixture was incubated for a reaction time of 25 min at 22° C. The concentration of CDK2/CycE was adjusted depending of the activity of the enzyme lot and was chosen appropriate to have the assay in the linear range, typical concentrations were in the range of 15 ng/ml. The reaction was stopped by the addition of 5 μl of a solution of TR-FRET detection reagents (0.2 μM streptavidine-XL665 [Cisbio Bioassays, Codolet, France] and 1 nM anti-RB(pSer807/pSer811)-antibody from BD Pharmingen [#558389] and 1.2 nM LANCE EU-W1024 labeled anti-mouse IgG antibody [Perkin-Elmer, product no. AD0077, as an alternative a Terbium-cryptate-labeled anti-mouse IgG antibody from Cisbio Bioassays can be used]) in an aqueous EDTA-solution (100 mM EDTA, 0.2% (w/v) bovine serum albumin in 100 mM HEPES/NaOH pH 7.0).
The resulting mixture was incubated 1 h at 22° C. to allow the formation of complex between the phosphorylated biotinylated peptide and the detection reagents. Subsequently the amount of phosphorylated substrate was evaluated by measurement of the resonance energy transfer from the Eu-chelate to the streptavidine-XL. Therefore, the fluorescence emissions at 620 nm and 665 nm after excitation at 350 nm were measured in a TR-FRET reader, e.g. a Rubystar (BMG Labtechnologies, Offenburg, Germany) or a Viewlux (Perkin-Elmer). The ratio of the emissions at 665 nm and at 622 nm was taken as the measure for the amount of phosphorylated substrate.

[1] = tested on: Caco-2, human colorectal carcinoma cells; assay: Proliferation assay, Caco-2 (crystal violet); format: cell-based; conditions: Caco-2, 4 days, read-out: Inhibition of Caco-2 cell proliferation IC50
Description: (§1) Cultivated tumour cells (HeLa, human cervical tumour cells, ATCC CCL-2; NCI-H460, human non-small cell lung carcinoma cells, ATCC HTB-177; A2780, human ovarian carcinoma cells, ECACC #93112519; DU 145, hormone-independent human prostate carcinoma cells, ATCC HTB-81; HeLa-MaTu-ADR, multidrug-resistant human cervical carcinoma cells, EPO-GmbH Berlin; Caco-2, human colorectal carcinoma cells, ATCC HTB-37; B16F10, mouse melanoma cells, ATCC CRL-6475) were plated at a density of 5,000 cells/well (DU145, HeLa-MaTu-ADR), 3,000 cells/well (NCI-H460, HeLa), 2,500 cells/well (A2780), 1,500 cells/well (Caco-2), or 1,000 cells/well (B16F10) in a 96-well multititer plate in 200 μL of their respective growth medium supplemented 10% fetal calf serum. After 24 hours, the cells of one plate (zero-point plate) were stained with crystal violet (see below), while the medium of the other plates was replaced by fresh culture medium (200 μl), to which the test substances were added in various concentrations (0 μM, as well as in the range of 0.001-10 μM; the final concentration of the solvent dimethyl sulfoxide was 0.5%). The cells were incubated for 4 days in the presence of test substances. Cell proliferation was determined by staining the cells with crystal violet: the cells were fixed by adding 20 μl/measuring point of an 11% glutaric aldehyde solution for 15 minutes at room temperature. After three washing cycles of the fixed cells with water, the plates were dried at room temperature. The cells were stained by adding 100 μl/measuring point of a 0.1% crystal violet solution (pH 3.0). After three washing cycles of the stained cells with water, the plates were dried at room temperature. The dye was dissolved by adding 100 μl/measuring point of a 10% acetic acid solution. The extinction was determined by photometry at a wavelength of 595 nm. The change of cell number, in percent, was calculated by normalization of the measured values to the extinction values of the zero-point plate (=0%) and the extinction of the untreated (0 μm) cells (=100%). The IC50 values (inhibitory concentration at 50% of maximal effect) were determined by means of a 4 parameter fit. Non-adherent MOLM-13 human acute myeloid leukemia cells (DSMZ ACC 554) were seeded at a density of 5,000 cells/well in a 96-well multititer plate in 100 μL of growth medium supplemented 10% fetal calf serum. After 24 hours, cell viability of one plate (zero-point plate) was determined with the Cell Titre-Glo Luminescent Cell Viability Assay (Promega), while 50 μL of test compound containing medium was added to the wells of the other plates (final concentrations in the range of 0.001-10 μM and DMSO controls; the final concentration of the solvent dimethyl sulfoxide was 0.5%). Cell viability was assessed after 72-hour exposure with the Cell Titre-Glo Luminescent Cell Viability Assay (Promega).

[2] = tested on: HeLa-MaTu-ADR, multidrug-resistant human cervical carcinoma cells; assay: Proliferation assay, HeLa-MaTu-ADR (crystal violet); format: cell-based; conditions: 4 days, read-out: Inhibition of HeLa-MaTu-ADR cell proliferation IC50
Description: as §1

[3] = tested on: DU 145, hormone-independent human prostate carcinoma cells; assay: Proliferation assay, DU145 (crystal violet); format: cell-based; conditions: DU145, 4 days, read-out: Inhibition of DU145 cell proliferation IC50
Description: as §1

[4] = tested on: MOLM-13 human acute myeloid leukemia cells; assay: Proliferation assay, MOLM-13 (Cell Titre-Glo); format: cell-based; conditions: Homo sapiens, MOLM-13, 72 h, MOLM-13, 72-hour exposure; read-out: Inhibition of MOLM-13 cell proliferation IC50
Description: as §1

| SMILES | IC50 (CDK2/CycE) | IC50 ([1]; Homo sapiens, Caco-2, 96 h) | IC50 ([2]; Homo sapiens, 96 h) | IC50 ([3]; Homo sapiens, DU-145, 96 h) | IC50 [4] | IC50 [1] | IC50 [2] | IC50 [3] |
| --- | --- | --- | --- | --- | --- | --- | --- | --- |
| COc1cc(F)ccc1-c1cc(Nc2cc(CS(C)(=N)=O)ccn2)ncc1F (racemic) [Example 1, (rac)-5-Fluoro-4-(4-fluoro-2-methoxyphenyl)-N-{4-[(S-methylsulfonimidoyl)methyl]pyridin-2-yl}pyridin-2-amine] | 5.86 µM | 0.045 µM | 0.061 µM | 0.037 µM | 0.019 µM | – | – | – |
| COc1cc(F)ccc1-c1cc(Nc2cc(CS(C)(=N)=O)cc(C)n2)ncc1F (racemic) [Example 4, (rac)-5-Fluoro-4-(4-fluoro-2-methoxyphenyl)-N-{6-methyl-4-[(S-methylsulfonimidoyl)methyl]pyridin-2-yl}pyridin-2-amine] | 1.01 µM | 0.068 µM | 0.034 µM | 0.067 µM | 0.035 µM | – | – | – |
| COc1cc(CS(C)(=N)=O)cc(Nc2cc(-c3ccc(F)cc3OC)c(F)cn2)n1 (racemic) [Example 6, (rac)-5-Fluoro-4-(4-fluoro-2-methoxyphenyl)-N-{6-methoxy-4-[(S-methylsulfonimidoyl)methyl]pyridin-2-yl}pyridin-2-amine] | 0.084 µM | 0.031 µM | 0.03 µM | 0.03 µM | 0.011 µM | – | – | – |
| COc1cc(F)ccc1-c1cc(Nc2cc(CS(C)(=N)=O)cc(Cl)n2)ncc1F (racemic) [Example 7, (rac)-N-{6-Chloro-4-[(S-methylsulfonimidoyl)methyl]pyridin-2-yl}-5-fluoro-4-(4-fluoro-2-methoxyphenyl)pyridin-2-amine] | 0.63 µM | 0.041 µM | 0.032 µM | 0.037 µM | 0.028 µM | – | – | – |
| COc1cc(F)ccc1-c1cc(Nc2cc(CS(=N)(=O)CCO)ccn2)ncc1F (racemic) [Example 8, (rac)-2-{S-[(2-{[5-Fluoro-4-(4-fluoro-2-methoxyphenyl)pyridin-2-yl]amino}pyridin-4-yl)methyl]sulfonimidoyl}ethanol] | 4.19 µM | 0.16 µM | 0.2 µM | 0.11 µM | 0.055 µM | – | – | – |
| COc1cc(F)ccc1-c1cc(Nc2cc(CS(=N)(=O)CCN)ccn2)ncc1F (racemic) [Example 9, (rac)-N-(4-{[S-(2-Aminoethyl)sulfonimidoyl]methyl}pyridin-2-yl)-5-fluoro-4-(4-fluoro-2-methoxyphenyl)pyridin-2-amine] | 4.23 µM | – | – | – | 0.12 µM | – | – | – |
| CCOC(=O)N=S(C)(=O)Cc1ccnc(Nc2cc(-c3ccc(F)cc3OC)c(F)cn2)c1 (racemic) [Example 11, (rac)-Ethyl{[(2-{[5-fluoro-4-(4-fluoro-2-methoxyphenyl)pyridin-2-yl]amino}pyridin-4-yl)methyl](methyl)oxido-λ^6-sulfanylidene}carbamate] | 2.92 µM | 0.11 µM | 0.1 µM | 0.11 µM | 0.042 µM | – | – | – |
| CCNC(=O)N=S(C)(=O)Cc1ccnc(Nc2cc(-c3ccc(F)cc3OC)c(F)cn2)c1 (racemic) [Example 12, (rac)-1-Ethyl-3-{[(2-{[5-fluoro-4-(4-fluoro-2-methoxyphenyl)pyridin-2-yl]amino}pyridin-4-yl)methyl](methyl)oxido-λ^6-sulfanylidene}urea] | 3.07 µM | 0.098 µM | 0.1 µM | 0.077 µM | 0.029 µM | – | – | – |
| COc1cc(F)ccc1-c1cc(Nc2cc(CS(C)(=O)=NC(C)=O)ccn2)ncc1F (racemic) [Example 13, (rac)-N-{[(2-{[5-Fluoro-4-(4-fluoro-2-methoxyphenyl)pyridin-2-yl]amino}pyridin-4-yl)methyl](methyl)oxido-λ^6-sulfanylidene}acetamide] | 3.69 µM | 0.12 µM | 0.11 µM | 0.11 µM | 0.029 µM | – | – | – |
| COc1cc(F)ccc1-c1cc(Nc2cc(CS(C)(=N)=O)cc(F)n2)ncc1F (racemic) [Example 17, (rac)-5-Fluoro-4-(4-fluoro-2-methoxyphenyl)-N-{6-fluoro-4-[(S-methylsulfonimidoyl)methyl]pyridin-2-yl}pyridin-2-amine] | 0.886 µM | 0.057 µM | 0.033 µM | 0.048 µM | 0.02 µM | – | – | – |
| COc1cc(F)ccc1-c1cc(Nc2cc(CS(C)(=N)=O)ccn2)ncc1F (single isomer, unassigned; enantiomer 1) [Example 16, 5-Fluoro-4-(4-fluoro-2-methoxyphenyl)-N-{4-[(S-methylsulfonimidoyl)methyl]pyridin-2-yl}pyridin-2-amine hydrochloride; enantiomer 1] | 5.15 µM | – | – | – | – | 0.12 µM | 0.11 µM | 0.12 µM |
| COc1cc(F)ccc1-c1cc(Nc2cc(CS(C)(=N)=O)ccn2)ncc1F.Cl (single isomer, unassigned; enantiomer 2) [Example 14, 5-Fluoro-4-(4-fluoro-2-methoxyphenyl)-N-{4-[(S-methylsulfonimidoyl)methyl]pyridin-2-yl}pyridin-2-amine hydrochloride; enantiomer 2] | 3.41 µM | – | – | – | – | 0.037 µM | 0.046 µM | 0.033 µM |
